pIC50: −log10 of the molar value. Activity calls are given as the source filed them. No cut-off for these calls is given here.
Assays:
[1] = biological target: Replicase polyprotein 1ab (Severe acute respiratory syndrome-related coronavirus) (UniProt P0C6X7); settings: dose 5.0 µM, time 30.0 min
[2] = biological target: Replicase polyprotein 1ab (Severe acute respiratory syndrome coronavirus 2) (UniProt P0DTD1); settings: dose 5.0 µM, time 30.0 min, values are per cent of control
[3] = biological target: T1, mRNA cap guanine-N(7) methyltransferase (Homo sapiens, UniProt O43148); settings: dose 5.0 µM, time 30.0 min
[4] = biological target: Nonstructural protein 5 (Dengue virus) (UniProt V5TFZ2); settings: dengue virus type 3; dose 5.0 µM, time 30.0 min
[5] = biological target: Replicase polyprotein 1ab (Severe acute respiratory syndrome coronavirus 2, UniProt P0DTD1)
[6] = Cytotoxicity against Green monkey VeroE6/TMPRSS2 cells assessed as reduction in cell viability upto 10 uM by CellTiter Blue assay; format: toxicity, cell-based; settings: chlorocebus sabaeus, veroe6/tmprss2, 10 µM
[7] = test system: SARS-CoV-2; experiment: Antiviral activity against SARS-CoV-2 B.1 infected in Green monkey VeroE6/TMPRSS2 cells assessed as viral replication inhibition at 10 uM incubated for 2 days by qRT-PCR analysis relative to control; format: functional
[8] = biological target: T1, mRNA cap guanine-N(7) methyltransferase
[9] = biological target: Replicase polyprotein 1ab (Severe acute respiratory syndrome-related coronavirus, UniProt P0C6X7)
[10] = test system: Severe acute respiratory syndrome coronavirus 2; settings: time 30.0 min
[11] = biological target: Nonstructural protein 5 (Dengue virus, UniProt V5TFZ2); design: species or system dengue virus type 3
[12] = Severe acute respiratory syndrome coronavirus 2, time 2.0 day

T1 sequence (O43148 whole entry): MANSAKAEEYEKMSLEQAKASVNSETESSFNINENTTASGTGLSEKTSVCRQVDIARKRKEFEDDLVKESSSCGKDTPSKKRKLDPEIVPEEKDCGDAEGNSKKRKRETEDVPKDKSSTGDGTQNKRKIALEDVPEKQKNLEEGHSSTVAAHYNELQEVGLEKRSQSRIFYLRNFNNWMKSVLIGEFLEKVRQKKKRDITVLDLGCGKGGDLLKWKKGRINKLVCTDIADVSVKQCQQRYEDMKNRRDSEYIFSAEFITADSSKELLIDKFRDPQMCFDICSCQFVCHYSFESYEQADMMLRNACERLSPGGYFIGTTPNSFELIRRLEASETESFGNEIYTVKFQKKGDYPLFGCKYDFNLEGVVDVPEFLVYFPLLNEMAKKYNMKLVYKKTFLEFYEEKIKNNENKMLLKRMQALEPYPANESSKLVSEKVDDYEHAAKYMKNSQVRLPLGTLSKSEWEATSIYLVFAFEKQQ

Row | SMILES | inhibition [1] [%] | residual activity [2] [%] | inhibition [3] | inhibition [4] | pIC50 [5] | Activity [6] | Activity [7, 12] | Activity ([7]; time 2 day) [%] | pIC50 [8] | pIC50 [9] | inhibition [10] | IC50 [11]
1 | Cc1cc(S(=O)(=O)NC[C@H]2O[C@@H](n3cnc4c(=O)[nH]cnc43)[C@H](O)[C@@H]2O)ccc1Cl | 71.8 | 87.6 | inactive | inactive |  |  |  |  |  |  |  | 
2 | Cc1ccc(S(=O)(=O)N(C)C[C@H]2O[C@@H](n3cc(C#Cc4ccccc4)c4c(N)ncnc43)[C@H](O)[C@@H]2O)cc1Cl | 2.4 | 7 | inactive | 94.8% | 7.59 | Non-Toxic | inactive |  |  |  |  | 
3 | CNc1ncnc2c1ncn2[C@@H]1O[C@H](CNS(=O)(=O)c2ccc(C)c(Cl)c2)[C@@H](O)[C@H]1O | 53.5 | 45.4 | 92% | inactive | 5.66 |  |  |  |  |  |  | 
4 | CN(C[C@H]1O[C@@H](n2cc(C#Cc3ccccc3)c3c(N)ncnc32)[C@H](O)[C@@H]1O)S(=O)(=O)c1ccc(Br)c([N+](=O)[O-])c1 | 3.3 | 5 | 95.9% | 96.9% | 7.76 | Non-Toxic | inactive |  |  |  |  | 
5 | CNc1ncnc2c1ncn2[C@@H]1O[C@H](CNS(=O)(=O)c2ccc(Br)c([N+](=O)[O-])c2)[C@@H](O)[C@H]1O | 54 | 33.8 | 57% | 78.1% | 5.47 |  |  |  |  |  |  | 
6 | CNc1ncnc2c1ncn2[C@@H]1O[C@H](CNS(=O)(=O)c2ccc(C)c([N+](=O)[O-])c2)[C@@H](O)[C@H]1O | 66.4 | 38.7 | 66.4% | 76.6% | 5.55 |  |  |  |  |  |  | 
7 | CCN(C[C@H]1O[C@@H](n2cnc3c(N)ncnc32)[C@H](O)[C@@H]1O)S(=O)(=O)c1ccc(OC)c(C#N)c1 | 4.2 |  | 69.5% | inactive |  |  |  |  |  |  |  | 
8 | CN(C[C@H]1O[C@@H](n2cc(C#Cc3cnc4ccccc4c3)c3c(N)ncnc32)[C@H](O)[C@@H]1O)S(=O)(=O)c1ccc(Br)c([N+](=O)[O-])c1 | 5.5 | 5.4 | 52.3% | inactive | 8.46 | Non-Toxic |  | 50 |  |  |  | 
9 | CNc1ncnc2c1ncn2[C@@H]1O[C@H](CNS(=O)(=O)c2ccc(OC)c([N+](=O)[O-])c2)[C@@H](O)[C@H]1O | 41.9 | 31.5 | inactive | inactive | 6.24 |  |  |  |  |  |  | 
10 | CCN(C[C@H]1O[C@@H](n2cnc3c(NC)ncnc32)[C@H](O)[C@@H]1O)S(=O)(=O)c1ccc(OC)c([N+](=O)[O-])c1 | 16.4 | 10.3 | 73.3% | 90% | 6.56 |  |  |  |  |  |  | 
11 | Cc1ccc(S(=O)(=O)N(C)C[C@H]2O[C@@H](n3cc(C#Cc4ccccc4)c4c(N)ncnc43)[C@H](O)[C@@H]2O)cc1[N+](=O)[O-] | 1 | 1 | inactive | 93.3% | 8.02 | Non-Toxic | inactive |  |  |  |  | 
12 | CCN(C[C@H]1O[C@@H](n2cnc3c(=O)[nH]cnc32)[C@H](O)[C@@H]1O)S(=O)(=O)c1ccc(Cl)c(C)c1 | 91 | 75.5 | inactive | inactive |  |  |  |  |  |  |  | 
13 | COc1ccc(S(=O)(=O)N(C)C[C@H]2O[C@@H](n3cc(C#Cc4ccccc4)c4c(N)ncnc43)[C@H](O)[C@@H]2O)cc1C#N | 1 | 2.4 | inactive |  | 8.92 | Non-Toxic | inactive |  | 4.25 | 9.10 | inactive | Not Active
14 | CCN(C[C@H]1O[C@@H](n2cnc3c(NC)ncnc32)[C@H](O)[C@@H]1O)S(=O)(=O)c1ccc(Br)c([N+](=O)[O-])c1 | 29.5 | 15.2 | inactive | 98% | 6.42 |  |  |  |  |  |  | 
15 | CCN(C[C@H]1O[C@@H](n2cnc3c(=O)[nH]cnc32)[C@H](O)[C@@H]1O)S(=O)(=O)c1ccc(OC)c([N+](=O)[O-])c1 | 69.8 | 56.4 | inactive | 86.4% |  |  |  |  |  |  |  | 
16 | CCN(C[C@H]1O[C@@H](n2cnc3c(=O)[nH]cnc32)[C@H](O)[C@@H]1O)S(=O)(=O)c1ccc(OC)c(C#N)c1 | 48.1 | 30.7 | 88.9% | 89.8% | 5.40 |  |  |  |  |  |  | 
17 | COc1ccc(S(=O)(=O)N(C)C[C@H]2O[C@@H](n3cc(C#Cc4cnc5ccccc5c4)c4c(N)ncnc43)[C@H](O)[C@@H]2O)cc1C#N | 1.4 | 0 | 53% |  | 9.14 | Non-Toxic |  | 50 | 3.78 | 9.85 | inactive | Not Active
18 | CCN(C[C@H]1O[C@@H](n2cnc3c(NC)ncnc32)[C@H](O)[C@@H]1O)S(=O)(=O)c1ccc(OC)c(C#N)c1 | 4.3 | 4.2 | 55.9% |  | 7.21 |  |  |  | 4.79 | 7.29 |  | Not Active
19 | COc1ccc(S(=O)(=O)N(C)C[C@H]2O[C@@H](n3cc(C#Cc4cnc5ccccc5c4)c4c(N)ncnc43)[C@H](O)[C@@H]2O)cc1[N+](=O)[O-] | 0.8 | 0 | 49.9% | inactive | 8.89 | Non-Toxic |  | 50 |  |  |  | 
20 | CCN(C[C@H]1O[C@@H](n2cnc3c(NC)ncnc32)[C@H](O)[C@@H]1O)S(=O)(=O)c1ccc(C)c([N+](=O)[O-])c1 | 20.1 | 10.9 | inactive | 97.1% | 6.73 |  |  |  |  |  |  | 
21 | Cc1ccc(S(=O)(=O)N(C)C[C@H]2O[C@@H](n3cc(C#Cc4cnc5ccccc5c4)c4c(N)ncnc43)[C@H](O)[C@@H]2O)cc1[N+](=O)[O-] | 1.9 | 4.2 | 86.7% | 96% | 8.68 | Non-Toxic |  | 50 |  |  |  | 
22 | COc1ccc(S(=O)(=O)N(C)C[C@H]2O[C@@H](n3cc(C#Cc4ccccc4)c4c(N)ncnc43)[C@H](O)[C@@H]2O)cc1[N+](=O)[O-] | 0.5 | 0 | inactive | 91.6% | 8.55 | Non-Toxic | inactive |  |  |  |  | 
23 | COc1ccc(S(=O)(=O)NC[C@H]2O[C@@H](n3cnc4c(=O)[nH]cnc43)[C@H](O)[C@@H]2O)cc1C#N | 98.4 | 86 | inactive | inactive |  |  |  |  |  |  |  | 
24 | CCN(C[C@H]1O[C@@H](n2cnc3c(NC)ncnc32)[C@H](O)[C@@H]1O)S(=O)(=O)c1ccc(C)c(Cl)c1 | 10.9 | 8.3 | 78% | inactive | 6.89 |  |  |  |  |  |  | 
25 | CNc1ncnc2c1ncn2[C@@H]1O[C@H](CNS(=O)(=O)c2ccc(OC)c(C#N)c2)[C@@H](O)[C@H]1O | 45.1 | 25.4 | inactive |  | 6.33 |  |  |  | 4.25 | 5.40 | inactive | Not Active
26 | COc1ccc(S(=O)(=O)NC[C@H]2O[C@@H](n3cnc4c(=O)[nH]cnc43)[C@H](O)[C@@H]2O)cc1[N+](=O)[O-] | 91.7 | 93.6 | inactive | inactive |  |  |  |  |  |  |  | 
27 | Cc1ccc(S(=O)(=O)N(C)C[C@H]2O[C@@H](n3cc(C#Cc4cnc5ccccc5c4)c4c(N)ncnc43)[C@H](O)[C@@H]2O)cc1Cl | 1.5 | 3.2 | 90.7% | 97.7% | 8.68 | Non-Toxic |  | 50 |  |  |  | 

Source: ChEMBL document CHEMBL5370550, “Structure-guided optimization of adenosine mimetics as selective and potent inhibitors of coronavirus nsp14 N7-methyltransferases” (Eur J Med Chem, 2023)
